The source of these data is ChEMBL document CHEMBL1157452, “First synthesis of alpha-aminoalkyl-(N-substituted)thiocarbamoyl-phosphinates: inhibitors of aminopeptidase N (APN/CD13) with the new zinc-binding group” (Bioorg Med Chem Lett, 2008).

This assay concerns the target T1, Aminopeptidase N (Sus scrofa, UniProt P15145).
T1 sequence (P15145 whole entry): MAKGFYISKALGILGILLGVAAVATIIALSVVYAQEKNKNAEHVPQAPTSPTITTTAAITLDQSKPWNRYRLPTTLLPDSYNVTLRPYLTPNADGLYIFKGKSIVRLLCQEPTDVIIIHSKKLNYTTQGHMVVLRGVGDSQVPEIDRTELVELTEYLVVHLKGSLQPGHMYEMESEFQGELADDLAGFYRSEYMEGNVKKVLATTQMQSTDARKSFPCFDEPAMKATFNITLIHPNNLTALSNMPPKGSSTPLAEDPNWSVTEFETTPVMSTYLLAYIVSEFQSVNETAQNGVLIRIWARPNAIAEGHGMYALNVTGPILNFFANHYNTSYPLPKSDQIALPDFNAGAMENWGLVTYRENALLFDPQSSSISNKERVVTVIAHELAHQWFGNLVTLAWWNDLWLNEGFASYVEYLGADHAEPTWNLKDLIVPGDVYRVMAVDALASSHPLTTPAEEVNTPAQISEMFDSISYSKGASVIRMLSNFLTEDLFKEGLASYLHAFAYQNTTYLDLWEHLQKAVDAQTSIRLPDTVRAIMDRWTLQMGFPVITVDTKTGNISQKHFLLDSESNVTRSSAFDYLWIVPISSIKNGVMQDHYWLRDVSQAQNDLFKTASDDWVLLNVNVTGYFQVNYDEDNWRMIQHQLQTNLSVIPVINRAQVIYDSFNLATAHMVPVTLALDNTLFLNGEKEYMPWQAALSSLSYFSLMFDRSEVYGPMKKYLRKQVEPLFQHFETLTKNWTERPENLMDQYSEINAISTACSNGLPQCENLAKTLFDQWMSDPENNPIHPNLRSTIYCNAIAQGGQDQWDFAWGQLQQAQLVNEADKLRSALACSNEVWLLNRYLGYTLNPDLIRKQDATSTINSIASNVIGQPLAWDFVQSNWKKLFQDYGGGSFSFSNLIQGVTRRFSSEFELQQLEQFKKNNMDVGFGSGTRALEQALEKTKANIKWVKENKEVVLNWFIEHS
In words: Inhibition of pig kidney aminopeptidase N.
`COc1ccc(CNC(=S)P(=O)(O)C(C)N)cc1` (configuration not stated) had a concentration for half-maximal inhibition (IC50) of 1120 nM. This counts as single-digit micromolar.
In turn, `CCCCCCNC(=S)P(=O)(O)C(N)CC(C)C` (configuration not stated) yielded a 50% inhibitory concentration (IC50) of 500 nM.
On to `CCCCCCNC(=S)P(=O)(O)C(N)C(C)C` (configuration not stated), for which half-maximal inhibition (IC50) required 1180 nM. Against the preceding compound, the IC50 is about 2.4-fold higher.
With `CCCCC(N)P(=O)(O)C(=S)NCc1ccc(OC)cc1` (configuration not stated), the IC50 is 250 nM and the affinity corresponds to a Ki of 143 nM.
For `CCCC(N)P(=O)(O)C(=S)NCCc1ccccc1` (configuration not stated), the IC50 is 2280 nM.
With `CCCCC(N)P(=O)(O)C(=S)NCCc1ccccc1` (configuration not stated), the half-inhibitory concentration (IC50) worked out at 730 nM.
The compound `CNC(=S)P(=O)(O)C(N)CC(C)C` (configuration not stated) registered a half-inhibitory concentration (IC50) of 10600 nM.
Same read-out and setting: to `CCCC(N)P(=O)(O)C(=S)NCc1ccc(OC)cc1` (configuration not stated) belongs 680 nM.
`CC(C)CNC(=S)P(=O)(O)C(N)C(C)C` (configuration not stated) gave an IC50 of 1900 nM.
Same read-out and setting: then `COc1ccc(CNC(=S)P(=O)(O)C(N)CCc2ccccc2)cc1` (configuration not stated), with 380 nM; and `CC(N)P(=O)(O)C(=S)NCCc1ccccc1` (configuration not stated), with 4200 nM.
